# Test results from PubChem BioAssay (NCI).
#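 Following 48 hours of exposure in 96-well plates, responses at five concentrations were used to interpolate endpoints linearly. At the GI50, growth is halved. TGI: concentration producing complete growth inhibition.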
# Tests used:
# Test in all cases: NCI tumour cell line growth inhibition, 48 h
# MALME-3M melanoma = tested on: MALME-3M melanoma
# HCT-116 colon = tested on: HCT-116 colon
# HCT-15 colon = tested on: HCT-15 colon
# SN12C renal = tested on: SN12C renal
# HOP-92 NSCLC = tested on: HOP-92 NSCLC
# DU-145 prostate = tested on: DU-145 prostate
# 786-0 renal = tested on: 786-0 renal
# MCF7 breast = tested on: MCF7 breast
# LOX IMVI melanoma = tested on: LOX IMVI melanoma
# SR leukemia = tested on: SR leukemia
# UO-31 renal = tested on: UO-31 renal
# OVCAR-5 ovarian = tested on: OVCAR-5 ovarian
# IGROV1 ovarian = tested on: IGROV1 ovarian
# NCI-H522 lung = tested on: NCI-H522 lung
# CAKI-1 renal = tested on: CAKI-1 renal
# OVCAR-4 ovarian = tested on: OVCAR-4 ovarian
# KM12 colon = tested on: KM12 colon
# MDA-MB-231 breast = tested on: MDA-MB-231 breast
# HCC-2998 colon = tested on: HCC-2998 colon
# TK-10 renal = tested on: TK-10 renal
# HL-60(TB) leukemia = tested on: HL-60(TB) leukemia
# NCI-H226 lung = tested on: NCI-H226 lung
# RXF 393 renal = tested on: RXF 393 renal
# U251 CNS = tested on: U251 CNS
# NCI/ADR-RES ovarian = tested on: NCI/ADR-RES ovarian
# K-562 leukemia = tested on: K-562 leukemia
# SF-539 CNS = tested on: SF-539 CNS
# BT-549 breast = tested on: BT-549 breast
# M14 melanoma = tested on: M14 melanoma
# SF-295 CNS = tested on: SF-295 CNS
# MDA-MB-435 = tested on: MDA-MB-435
# COLO 205 colon = tested on: COLO 205 colon
# SW-620 colon = tested on: SW-620 colon
# HS 578T breast = tested on: HS 578T breast
# SNB-75 CNS = tested on: SNB-75 CNS
# PC-3 prostate = tested on: PC-3 prostate
# ACHN renal = tested on: ACHN renal
# A498 renal = tested on: A498 renal
# SF-268 CNS = tested on: SF-268 CNS
# CCRF-CEM leukemia = tested on: CCRF-CEM leukemia
# SK-MEL-28 melanoma = tested on: SK-MEL-28 melanoma
# A549 NSCLC = tested on: A549 NSCLC
# T-47D breast = tested on: T-47D breast
# EKVX NSCLC = tested on: EKVX NSCLC
# UACC-62 melanoma = tested on: UACC-62 melanoma
# SNB-19 CNS = tested on: SNB-19 CNS
# MOLT-4 leukemia = tested on: MOLT-4 leukemia
# HOP-62 NSCLC = tested on: HOP-62 NSCLC
# NCI-H23 lung = tested on: NCI-H23 lung
# SK-MEL-5 melanoma = tested on: SK-MEL-5 melanoma
# NCI-H460 lung = tested on: NCI-H460 lung
# OVCAR-8 ovarian = tested on: OVCAR-8 ovarian
# UACC-257 melanoma = tested on: UACC-257 melanoma
# SK-OV-3 ovarian = tested on: SK-OV-3 ovarian
# HT29 colon = tested on: HT29 colon
structure (smiles),measurement,setting,value
C#C[C@]1(O)CC[C@H]2[C@@H]3CC=C4c5sc(Nc6cccc(C)n6)nc5CC[C@]4(C)[C@H]3CC[C@@]21C,GI50,MALME-3M melanoma,1400 nM
same,TGI,MALME-3M melanoma,3.36 µM
same,GI50,HCT-116 colon,1350 nM
same,TGI,HCT-116 colon,3.04 µM
same,GI50,HCT-15 colon,1130 nM
same,TGI,HCT-15 colon,2710 nM
same,GI50,SN12C renal,1620 nM
same,TGI,SN12C renal,3.2 µM
same,GI50,HOP-92 NSCLC,1590 nM
same,TGI,HOP-92 NSCLC,4.15 µM
same,GI50,DU-145 prostate,2800 nM
same,TGI,DU-145 prostate,12 µM
same,GI50,786-0 renal,437 nM
same,TGI,786-0 renal,1960 nM
same,GI50,MCF7 breast,1240 nM
same,TGI,MCF7 breast,3.52 µM
same,GI50,LOX IMVI melanoma,1390 nM
same,TGI,LOX IMVI melanoma,2790 nM
same,GI50,SR leukemia,403 nM
same,TGI,SR leukemia,2090 nM
same,GI50,UO-31 renal,1140 nM
same,TGI,UO-31 renal,2560 nM
same,GI50,OVCAR-5 ovarian,1700 nM
same,TGI,OVCAR-5 ovarian,3.78 µM
same,GI50,IGROV1 ovarian,2740 nM
same,TGI,IGROV1 ovarian,11.5 µM
same,GI50,NCI-H522 lung,1660 nM
same,TGI,NCI-H522 lung,3.26 µM
same,GI50,CAKI-1 renal,1530 nM
same,TGI,CAKI-1 renal,4.34 µM
same,GI50,OVCAR-4 ovarian,3.02 µM
same,TGI,OVCAR-4 ovarian,16.8 µM
same,GI50,KM12 colon,1850 nM
same,TGI,KM12 colon,5.99 µM
same,GI50,MDA-MB-231 breast,1240 nM
same,TGI,MDA-MB-231 breast,3.38 µM
same,GI50,HCC-2998 colon,2190 nM
same,TGI,HCC-2998 colon,5.52 µM
same,GI50,TK-10 renal,2460 nM
same,TGI,TK-10 renal,7.67 µM
same,GI50,HL-60(TB) leukemia,710 nM
same,TGI,HL-60(TB) leukemia,3.46 µM
same,GI50,NCI-H226 lung,2690 nM
same,TGI,NCI-H226 lung,12.1 µM
same,GI50,RXF 393 renal,230 nM
same,TGI,RXF 393 renal,579 nM
same,GI50,U251 CNS,558 nM
same,TGI,U251 CNS,1930 nM
same,GI50,NCI/ADR-RES ovarian,1820 nM
same,TGI,NCI/ADR-RES ovarian,7.41 µM
same,GI50,K-562 leukemia,666 nM
same,TGI,K-562 leukemia,3.1 µM
same,GI50,SF-539 CNS,280 nM
same,TGI,SF-539 CNS,1170 nM
same,GI50,BT-549 breast,1490 nM
same,TGI,BT-549 breast,3.31 µM
same,GI50,M14 melanoma,1520 nM
same,TGI,M14 melanoma,3.57 µM
same,GI50,SF-295 CNS,329 nM
same,TGI,SF-295 CNS,1360 nM
same,GI50,MDA-MB-435,2240 nM
same,TGI,MDA-MB-435,6.44 µM
same,GI50,COLO 205 colon,1760 nM
same,TGI,COLO 205 colon,3.38 µM
same,GI50,SW-620 colon,1560 nM
same,TGI,SW-620 colon,3.09 µM
same,GI50,HS 578T breast,343 nM
same,TGI,HS 578T breast,2020 nM
same,GI50,SNB-75 CNS,1090 nM
same,TGI,SNB-75 CNS,8.32 µM
same,GI50,PC-3 prostate,979 nM
same,TGI,PC-3 prostate,5.54 µM
same,GI50,ACHN renal,1200 nM
same,TGI,ACHN renal,3.55 µM
same,GI50,A498 renal,1280 nM
same,TGI,A498 renal,2620 nM
same,GI50,SF-268 CNS,2020 nM
same,TGI,SF-268 CNS,7.37 µM
same,GI50,CCRF-CEM leukemia,1360 nM
same,TGI,CCRF-CEM leukemia,6.35 µM
same,GI50,SK-MEL-28 melanoma,543 nM
same,TGI,SK-MEL-28 melanoma,2280 nM
same,GI50,A549 NSCLC,1890 nM
same,TGI,A549 NSCLC,8.31 µM
same,GI50,T-47D breast,1980 nM
same,TGI,T-47D breast,6.64 µM
same,GI50,EKVX NSCLC,1390 nM
same,TGI,EKVX NSCLC,10.1 µM
same,GI50,UACC-62 melanoma,1490 nM
same,TGI,UACC-62 melanoma,3.3 µM
same,GI50,SNB-19 CNS,1200 nM
same,TGI,SNB-19 CNS,3.82 µM
same,GI50,MOLT-4 leukemia,552 nM
same,TGI,MOLT-4 leukemia,3.05 µM
same,GI50,HOP-62 NSCLC,1330 nM
same,TGI,HOP-62 NSCLC,2930 nM
same,GI50,NCI-H23 lung,1570 nM
same,TGI,NCI-H23 lung,6.03 µM
same,GI50,SK-MEL-5 melanoma,1840 nM
same,TGI,SK-MEL-5 melanoma,3.7 µM
same,GI50,NCI-H460 lung,1460 nM
same,TGI,NCI-H460 lung,3.04 µM
same,GI50,OVCAR-8 ovarian,1450 nM
same,TGI,OVCAR-8 ovarian,4.78 µM
same,GI50,UACC-257 melanoma,1620 nM
same,TGI,UACC-257 melanoma,3.46 µM
same,GI50,SK-OV-3 ovarian,1370 nM
same,TGI,SK-OV-3 ovarian,3.25 µM
same,GI50,HT29 colon,1500 nM
same,TGI,HT29 colon,3.17 µM
